In patent US5294618A, “Octahydrobenzisoquinoline derivatives as antipsychotic agents” (Merck Sharp & Dohme Limited, priority 1989, dated 1994):

How the values were obtained:
sigma sites = target: T1, sigma sites (Mus musculus, UniProt O55242); assay: Displacement of tritiated (+)-SKF 10047 sigma ligand in vivo; conditions: sc, s.c. dosing, read-out: effective dose for displacing 50% of ligand (ED50)
T1 construct: displace tritiated sigma ligands in vivo; from tissue; host or cells: sites in the living animal after s.c. dosing
T1 sequence (O55242 whole entry): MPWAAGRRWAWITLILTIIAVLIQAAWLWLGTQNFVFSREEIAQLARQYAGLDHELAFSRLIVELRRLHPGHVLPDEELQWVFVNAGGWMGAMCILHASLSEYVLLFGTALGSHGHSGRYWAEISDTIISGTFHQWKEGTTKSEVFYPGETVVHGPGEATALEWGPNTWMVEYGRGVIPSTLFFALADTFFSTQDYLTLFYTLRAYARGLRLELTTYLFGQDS
Description: The ability of the test compounds to displace tritiated sigma ligands in vivo was determined by a modification of the method of Ferris et al., Life Sci., 1986, 38, 2329. In these experiments the sigma ligand used was tritiated (+)-SKF 10047.

[1] = Indian J. Chem., Sect. B, 1979, 17, 239; cited from earlier work
sigma recognition site = conditions: cited from earlier work
[2] = test system: N-methyl-D-aspartate (NMDA) ion-channel complex; conditions: cited from earlier work
dopamine D2 receptors = conditions: cited from earlier work

Which ED50 (sigma sites) does the source give for CCCCN1CC[C@H]2c3ccccc3CC[C@@H]2C1 (relative stereo) [Example 2, trans-3-Butyl-1,2,3,4,4a,5,6,10b-octahydrobenz[f]isoquinoline] here?
The ED50 was under 1 mg/kg.

Which ED50 (sigma sites) does the source give for c1ccc2c(c1)CC[C@@H]1CN(C3CCCCC3)CC[C@@H]21 (relative stereo) [Example 4, trans-3-Cyclohexyl-1,2,3,4,4a,5,6,10b-octahydrobenz[f]isoquinoline] here?
Its ED50 is under 1 mg/kg.

Which CNS depressant activity [1] does the source give for O=C(CCCN1CCC2c3ccccc3CCC2C1)c1ccc(F)cc1 (stereo not drawn) [3-[3-(4-fluorobenzoyl)propyl]-1,2,3,4,4a,5,6,10b-octahydrobenz[f]isoquinoline] here?
The CNS depressant activity was “weak CNS depressant activity”.

And the hypotensive activity [1]?
Its hypotensive activity is “significant hypotensive activity”.

For C=CCN1CCC2(C)c3cc(O)ccc3CC1C2C (stereo not drawn) [N-allylnormetazocine (SKF 10047), N-allylnormetazocine], which “potency/affinity at sigma sites” value (sigma recognition site) is on record?
The value was “having an affinity”.

And the “interaction with NMDA ion-channel complex” value [2]?
Its value is “interacts strongly”.

Which “relative potency at sigma sites versus D2 receptors” value (sigma recognition site; sigma sites and D2 receptors) does the source give for O=C(CCCN1CCC(O)(c2ccc(Cl)cc2)CC1)c1ccc(F)cc1 [haloperidol] here?
The value was “equally potently”.

For C[C@@H]1CN(CCCn2c3ccccc3c3ccccc32)C[C@H](C)N1 [rimcazole], which “potency/affinity at sigma sites” value (sigma recognition site) is on record?
The value was “only moderate potency”.

And the “activity at dopamine D2 receptors” value (dopamine D2 receptors)?
Its value is “essentially inactive”.
